Laboratory results published in ChEMBL document CHEMBL5576042, “Fungal Depsidones Stimulate AKT-Dependent Glucose Uptake in 3T3-L1 Adipocytes” (J Nat Prod, 2024).
Values belong to the molecule of their own block, whether it stands above or below them. Activity calls are given as the source filed them. No cut-off for these calls is given here.

Key:
[1] = system: 3T3-L1; test: Induction of glucose uptake in mouse 3T3-L1 cells assessed as increase in glucose uptake at 2.3 uM incubated for 16 hrs in presence of 2-[3H]-deoxyglucose by microbeta analysis; assay type: functional
[2] = system: 3T3-L1; test: Induction of glucose uptake in mouse 3T3-L1 cells assessed as increase in glucose uptake at 3.1 uM incubated for 16 hrs in presence of 2-[3H]-deoxyglucose by microbeta analysis; assay type: functional
[3] = target: T1, Solute carrier family 2, facilitated glucose transporter member 4 (Mus musculus) (UniProt P14142); test: Induction of GLUT4 translocation in mouse 3T3-L1 cells membrane by Western blot analysis; assay type: cell membranes
T1 sequence (whole entry): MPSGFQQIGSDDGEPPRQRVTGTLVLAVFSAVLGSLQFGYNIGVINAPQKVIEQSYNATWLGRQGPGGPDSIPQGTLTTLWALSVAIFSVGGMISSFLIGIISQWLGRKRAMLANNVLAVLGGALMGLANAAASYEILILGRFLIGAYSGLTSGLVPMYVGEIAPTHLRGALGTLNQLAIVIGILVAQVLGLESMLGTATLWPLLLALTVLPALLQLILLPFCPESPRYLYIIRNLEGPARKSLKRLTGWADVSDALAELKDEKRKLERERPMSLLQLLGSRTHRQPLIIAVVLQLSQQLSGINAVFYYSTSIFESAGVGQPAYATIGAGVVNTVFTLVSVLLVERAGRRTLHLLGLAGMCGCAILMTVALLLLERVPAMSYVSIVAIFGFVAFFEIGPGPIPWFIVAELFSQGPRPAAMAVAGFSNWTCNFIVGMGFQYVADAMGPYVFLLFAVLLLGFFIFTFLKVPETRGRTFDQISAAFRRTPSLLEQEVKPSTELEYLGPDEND

[4] = system: 3T3-L1; test: Cytotoxicity against mouse 3T3-L1 cells assessed as reduction in cell viability at 45 to 68 uM incubated for 18 hrs; assay type: toxicity, cell-based; conditions: 3t3-l1, 18 h, dose 45-68 µM
[5] = system: 3T3-L1; test: Induction of glucose uptake in mouse 3T3-L1 cells assessed as increase in glucose uptake incubated for 16 hrs in presence 2-[3H]-deoxyglucose by microbeta analysis; assay type: functional, cell-based; conditions: dose 2.8-11 µM
[6] = system: 3T3-L1; test: Induction of glucose uptake in mouse 3T3-L1 cells assessed as increase in glucose uptake at 11.27 uM in presence 2-[3H]-deoxyglucose by microbeta analysis; assay type: functional, cell-based; conditions: time 3-16 hrs, TDE = time-dependent effect
[7] = system: 3T3-L1; test: Induction of glucose uptake in insulin-stimulated mouse 3T3-L1 cells assessed as increase in glucose uptake at 11 uM incubated for 16 hrs presence 2-[3H]-deoxyglucose by microbeta analysis; assay type: functional
[8] = system: 3T3-L1; test: Induction of glucose uptake in metformin-stimulated mouse 3T3-L1 cells assessed as increase in glucose uptake at 11 uM incubated for 16 hrs presence 2-[3H]-deoxyglucose by microbeta analysis; assay type: functional
[9] = system: 3T3-L1; test: Induction of glucose uptake in insulin-stimulated mouse 3T3-L1 cells assessed as increase in glucose uptake at 100 nM incubated for 16 hrs presence 2-[3H]-deoxyglucose by microbeta analysis; assay type: functional, cell-based
[10] = system: 3T3-L1; test: Effect on GLUT4 mRNA expression in mouse 3T3-L1 cells at 11 uM incubated for 6 hrs by real time qPCR analysis; assay type: functional, cell-based
[11] = Effect on ACTbeta mRNA expression in mouse 3T3-L1 cells assessed as fold change at 11 uM incubated for 6 hrs by real time qPCR analysis; assay type: functional
[12] = Effect on NONO mRNA expression in mouse 3T3-L1 cells assessed as fold change at 11 uM incubated for 6 hrs by real time qPCR analysis; assay type: functional
[13] = Effect on GLUT4 protein level in mouse 3T3-L1 cells assessed as fold change at 11 uM incubated for 16 hrs; assay type: functional
[14] = system: 3T3-L1; test: Induction of AKT phosphorylation at ser473 residue in mouse 3T3-L1 cells measured up to 6 hrs by Western blot analysis; assay type: cell-based; conditions: filed as activator
[15] = system: 3T3-L1; test: Induction of AKT phosphorylation at ser473 residue in mouse 3T3-L1 cells assessed as fold change at 11 uM measured at 1 hr by Western blot analysis; assay type: cell-based; conditions: filed as activator
[16] = system: 3T3-L1; test: Induction of AKT phosphorylation at ser473 residue in mouse 3T3-L1 cells assessed as fold change at 11 uM measured at 6 hrs by Western blot analysis; assay type: cell-based; conditions: filed as activator
[17] = Upregulation of AMPK expression in mouse 3T3-L1 cells assessed as fold change at 11 uM measured at 1 hr by Western blot analysis; assay type: functional
[18] = Upregulation of AMPK expression in mouse 3T3-L1 cells assessed as fold change at 11 uM measured at 6 hrs by Western blot analysis; assay type: functional
[19] = system: 3T3-L1; test: Induction of glucose uptake in mouse 3T3-L1 cells assessed as increase in glucose uptake at 11 uM incubated for 16 hrs in presence of wortmannin; assay type: functional, cell-based
[20] = system: 3T3-L1; test: Induction of glucose uptake in mouse 3T3-L1 cells assessed as increase in glucose uptake at 11 uM incubated for 16 hrs in presence of 0.1 uM wortmannin; assay type: functional, cell-based
[21] = system: 3T3-L1; test: Induction of glucose uptake in mouse 3T3-L1 cells assessed as increase in glucose uptake at 11 uM incubated for 16 hrs in presence of 0.1 uM dorsomorphin; assay type: functional, cell-based
[22] = system: 3T3-L1; test: Induction of glucose uptake in mouse 3T3-L1 cells assessed as increase in glucose uptake by measuring fold change at 11 uM incubated for 6 hrs in presence of 0.1 uM wortmannin; assay type: functional
[23] = system: 3T3-L1; test: Induction of glucose uptake in mouse 3T3-L1 cells assessed as increase in glucose uptake by measuring fold change at 11 uM incubated for 6 hrs in presence of 0.25 uM wortmannin; assay type: functional
[24] = system: 3T3-L1; test: Induction of glucose uptake in mouse 3T3-L1 cells assessed as increase in glucose uptake by measuring fold change at 11 uM incubated for 6 hrs in presence of 0.5 uM wortmannin; assay type: functional
[25] = system: 3T3-L1; test: Induction of glucose uptake in mouse 3T3-L1 cells assessed as increase in glucose uptake at 11 uM incubated for 6 hrs in presence of 0.5 uM wortmannin; assay type: functional
[26] = target: T1, Solute carrier family 2, facilitated glucose transporter member 4 (Mus musculus); test: Induction of GLUT4 translocation in mouse 3T3-L1 cells membrane assessed as fold increase in Na+/K+ ATPase level by Western blot analysis; assay type: cell membranes
[27] = target: T2, Solute carrier family 2, facilitated glucose transporter member 1 (Mus musculus) (UniProt P17809); test: Induction of GLUT1 translocation in mouse 3T3-L1 cells membrane assessed as fold increase in Na+/K+ ATPase level by Western blot analysis; assay type: cell membranes
T2 sequence (whole entry): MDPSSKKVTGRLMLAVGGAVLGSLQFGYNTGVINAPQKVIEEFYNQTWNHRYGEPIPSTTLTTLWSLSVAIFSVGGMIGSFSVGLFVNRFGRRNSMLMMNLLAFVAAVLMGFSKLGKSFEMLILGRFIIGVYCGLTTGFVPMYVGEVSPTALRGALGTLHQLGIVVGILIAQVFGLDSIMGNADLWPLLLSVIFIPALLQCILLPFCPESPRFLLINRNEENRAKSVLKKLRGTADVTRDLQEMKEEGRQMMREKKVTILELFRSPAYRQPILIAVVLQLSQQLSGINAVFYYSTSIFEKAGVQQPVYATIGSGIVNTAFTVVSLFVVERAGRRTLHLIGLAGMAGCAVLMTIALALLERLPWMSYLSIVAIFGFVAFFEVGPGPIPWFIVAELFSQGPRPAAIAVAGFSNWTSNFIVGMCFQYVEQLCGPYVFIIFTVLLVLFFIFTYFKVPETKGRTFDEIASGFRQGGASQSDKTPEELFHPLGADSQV

[28] = target: T1, Solute carrier family 2, facilitated glucose transporter member 4 (Mus musculus); test: Induction of GLUT4 translocation in mouse 3T3-L1 cells Cytosol by Western blot analysis; assay type: subcellular
[29] = target: T2, Solute carrier family 2, facilitated glucose transporter member 1 (Mus musculus); test: Induction of GLUT1 translocation in mouse 3T3-L1 cells Cytosol by Western blot analysis; assay type: subcellular
[30] = system: 3T3-L1; test: Induction of glucose uptake in insulin resistant-mouse 3T3-L1 cells assessed as fold increase in glucose uptake at 11 uM incubated for 16 hrs in presence of 2-[3H]-deoxyglucose; assay type: functional
[31] = system: 3T3-L1; test: Induction of glucose uptake in insulin resistant-mouse 3T3-L1 cells assessed as fold increase in glucose uptake at 11 uM incubated for 16 hrs in presence of 2-[3H]-deoxyglucose and insulin; assay type: functional
[32] = system: 3T3-L1; test: Induction of AKT phosphorylation at ser473 residue in insulin-resistant mouse 3T3-L1 cells in presence of insulin; assay type: cell-based; conditions: filed as activator
[33] = system: 3T3-L1; test: Induction of AKT phosphorylation at ser473 residue in insulin-resistant mouse 3T3-L1 cells assessed as fold change in presence of insulin; assay type: cell-based; conditions: filed as activator

SMILES: C/C=C(\C)c1c(Cl)c(O)c(C)c2c1Oc1c(Cl)c(O)c(Cl)c(C)c1C(=O)O2
Activity [1]: 121%

SMILES: C/C=C(\C)c1cc(O)c(C)c2c1Oc1cc(O)cc(C)c1C(=O)O2
Activity [2]: 124%

Activity [3]: Active | fold change (FC) [26]: 1.7 | fold change (FC) [27]: 1.6 | Activity [28]: Active | Activity [29]: Active
SMILES: C/C=C(\C)c1c(Cl)c(OC)c(C)c2c1Oc1c(Cl)c(O)c(Cl)c(C)c1C(=O)O2
Activity [1]: 141% | Activity [4]: Non-Toxic | Activity [5]: Dose-Dependent Effect | Activity [6]: Tde | Activity [7]: 276% | Activity [8]: 252% | Activity [9]: Active | Activity [10]: Active | fold change (FC) [11]: 1.92 | fold change (FC) [12]: 2.07 | fold change (FC) [13]: 1.67 | Activity [14]: Active | fold change (FC) [15]: 2.4 | fold change (FC) [16]: 19 | fold change (FC) [17]: 3.7 | fold change (FC) [18]: 3.8 | Activity [19]: inactive | Activity [20]: inactive | Activity [21]: inactive | fold change (FC) [22]: 1.5 | fold change (FC) [23]: 1.4 | fold change (FC) [24]: 1.2 | Activity [25]: 20% | fold change (FC) [30]: 2.4 | fold change (FC) [31]: 2.7 | Activity [32]: Active | fold change (FC) [33]: 2.1
